Laboratory results as given in US20110111016A1, “NON-DNA BASE-CONTAINING POLYNUCLEOTIDE COMPOSITIONS AND THEIR USE FOR THE MODULATION OF IMMUNE RESPONSES” (priority 2009, published 2011).

Key:
Type in all cases: cell-based
[1] = target: T1, human TLR3 (Homo sapiens, UniProt O15455); assay: NF-κB activation (secreted alkaline phosphatase reporter) in HEK293 cells expressing human TLR3; settings: HEK293/hTLR3 cell line; at 1 μg/mL; 16-20 hours
T1 construct: host or cells: HEK293
T1 sequence (O15455 24-904): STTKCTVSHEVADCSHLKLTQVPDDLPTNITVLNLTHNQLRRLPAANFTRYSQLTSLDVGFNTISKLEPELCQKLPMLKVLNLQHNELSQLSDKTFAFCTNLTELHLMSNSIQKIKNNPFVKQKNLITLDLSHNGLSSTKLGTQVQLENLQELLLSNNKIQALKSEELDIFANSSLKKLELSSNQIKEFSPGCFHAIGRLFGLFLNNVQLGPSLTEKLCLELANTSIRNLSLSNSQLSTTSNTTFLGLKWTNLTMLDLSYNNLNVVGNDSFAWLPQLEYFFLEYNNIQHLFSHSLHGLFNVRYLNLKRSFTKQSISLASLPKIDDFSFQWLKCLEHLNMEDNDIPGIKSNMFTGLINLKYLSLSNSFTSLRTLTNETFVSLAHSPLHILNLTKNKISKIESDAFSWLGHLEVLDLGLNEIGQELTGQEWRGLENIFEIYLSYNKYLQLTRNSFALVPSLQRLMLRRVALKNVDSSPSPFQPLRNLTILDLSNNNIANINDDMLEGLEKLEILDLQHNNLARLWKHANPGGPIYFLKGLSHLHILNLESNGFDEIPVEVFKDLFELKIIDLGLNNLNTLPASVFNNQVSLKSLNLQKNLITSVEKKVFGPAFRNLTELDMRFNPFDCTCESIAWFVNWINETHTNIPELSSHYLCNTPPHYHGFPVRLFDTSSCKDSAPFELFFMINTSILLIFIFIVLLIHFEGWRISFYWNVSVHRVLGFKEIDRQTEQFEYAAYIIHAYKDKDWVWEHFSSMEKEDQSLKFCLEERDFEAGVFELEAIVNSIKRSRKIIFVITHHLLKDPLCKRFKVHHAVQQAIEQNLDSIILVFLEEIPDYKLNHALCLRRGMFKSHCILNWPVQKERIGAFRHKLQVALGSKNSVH
Method: (§1) Toll-like receptors (TLR) are known to interact with a number of natural and synthetic molecules that can function as immune adjuvants. Examples of these molecules are Poly (I:C) polynucleotides, lipopolysaccharide and CpG-containing polynucleotides. The interaction of non-DNA base-containing polynucleotides (SEQ ID NOs: 1-3) to interact with TLR and induce down-stream signaling was tested by assessing NF-κB activation in HEK293 cells expressing human TLR2, 3, 4, 5, 7, 8 and 9. TLR engagement was determined by measurement of secreted alkaline phosphatase, under the control of a reporter inducible by NF-κB. Appropriate positive controls were used for each TLR. The non-DNA base-containing polynucleotides were dissolved in sterile water at a concentration of 100 μg/mL, and used at a final concentration of 10 μg/mL. HEK293 cells containing the appropriate TLR and NF-κB reporting system (InvivoGen, San Diego, Calif., USA) were placed in wells of 96 well plates (25,000-50,000 cells, in a final volume of 200 μL medium designed for the detection of NF-κB induced secreted alkaline phosphatase expression), and incubated with non-DNA base-containing polynucleotides or positive controls for 16-20 hours. TLR activating activity was determined by measurement of absorbance at 650 nm wavelength using a Coulter AD340C absorbance detector. The results shown are expressed as Optical Density (OD).

[2] = system: NF-κB control cells; assay: NF-κB reporter control cells (secreted alkaline phosphatase); settings: at 100 ng/mL, 16-20 hours
Method: as §1

[3] = target: T2, human TLR5 (Homo sapiens, UniProt O60602); assay: NF-κB activation (secreted alkaline phosphatase reporter) in HEK293 cells expressing human TLR5; settings: HEK293/hTLR5 cell line; at 100 ng/mL; 16-20 hours
T2 construct: host or cells: HEK293
Method: as §1

T2 sequence (O60602 21-858): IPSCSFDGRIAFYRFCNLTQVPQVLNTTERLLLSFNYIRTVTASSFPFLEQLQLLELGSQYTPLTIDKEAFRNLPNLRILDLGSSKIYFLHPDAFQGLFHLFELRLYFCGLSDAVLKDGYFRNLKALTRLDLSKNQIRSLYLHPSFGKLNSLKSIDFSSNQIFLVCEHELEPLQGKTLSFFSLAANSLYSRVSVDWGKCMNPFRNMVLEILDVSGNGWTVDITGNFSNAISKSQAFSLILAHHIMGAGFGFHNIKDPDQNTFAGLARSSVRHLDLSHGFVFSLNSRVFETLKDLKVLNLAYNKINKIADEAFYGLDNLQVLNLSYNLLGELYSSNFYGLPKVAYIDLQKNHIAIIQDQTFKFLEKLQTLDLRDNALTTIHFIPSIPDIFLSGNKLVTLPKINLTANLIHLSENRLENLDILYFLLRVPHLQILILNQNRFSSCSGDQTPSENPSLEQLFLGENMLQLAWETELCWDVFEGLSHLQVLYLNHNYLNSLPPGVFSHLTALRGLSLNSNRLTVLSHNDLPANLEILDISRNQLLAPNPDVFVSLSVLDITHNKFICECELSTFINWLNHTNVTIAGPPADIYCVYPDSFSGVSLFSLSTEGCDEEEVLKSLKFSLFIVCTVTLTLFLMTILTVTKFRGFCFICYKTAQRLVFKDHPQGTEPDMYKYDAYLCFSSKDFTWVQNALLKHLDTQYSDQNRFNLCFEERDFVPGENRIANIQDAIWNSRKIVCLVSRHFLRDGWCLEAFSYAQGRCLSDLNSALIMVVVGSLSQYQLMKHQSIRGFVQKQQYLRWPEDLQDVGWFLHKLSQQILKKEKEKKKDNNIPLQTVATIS

Poly (I:C) [reference compound]
TLR activation, Optical Density at 650 nm, hTLR3, positive control [1]: 2.547

CCCCCCCCCCCCCC(=O)O[C@@H]1[C@@H](C)[C@@]2(O)[C@@H](C=C(CO)C[C@]3(O)C(=O)C(C)=C[C@@H]23)[C@@H]2C(C)(C)[C@]12OC(C)=O [PMA, reference compound]
Optical Density at 650 nm, NF-κB control cells, positive control [2]: 2.765

B1: S. typhimurium flagellin: hTLR5 positive control (protein)
chain: AQVINTNSLSLLTQNNLNKSQSALGTAIERLSSGLRINSAKDDAAGQAIANRFTANIKGLTQASRNANDGISIAQTTEGALNEINNNLQRVRELAVQSANSTNSQSDLDSIQAEITQRLNEIDRVSGQTQFNGVKVLAQDNTLTIQVGANDGETIDIDLKQINSQTLGLDTLNVQQKYKVSDTAATVTGYADTTIALDNSTFKASATGLGGTDQKIDGDLKFDDTTGKYYAKVTVTGGTGKDGYYEVSVDKTNGEVTLAGGATSPLTGGLPATATEDVKNVQVANADLTEAKAALTAAGVTGTASVVKMSYTDNNGKTIDGGLAVKVGDDYYSATQNKDGSISINTTKYTADDGTSKTALNKLGGADGKTEVVSIGGKTYAASKAEGHNFKAQPDLAEAAATTTENPLQKIDAALAQVDTLRSDLGAVQNRFNSAITNLGNTVNNLTSARSRIEDSDYATEVSNMSRAQILQQAGTSVLAQANQVPQNVLSLLR
TLR activation, Optical Density at 650 nm, hTLR5, positive control [3]: 2.593
